The values below come from ChEMBL document CHEMBL1909046, “DrugMatrix in vitro pharmacology data”.

pIC50, pKi: −log10 of the molar value.

As usually defined, the pIC50 is −log10 of the IC50, conventionally taken in molar units. Broadly, the pKi is the negative decadic logarithm of the Ki, by convention in mol/L.

Data set [1] deals with T1, Alpha-1D adrenergic receptor (Homo sapiens, UniProt P25100).
T1 sequence (P25100 whole entry): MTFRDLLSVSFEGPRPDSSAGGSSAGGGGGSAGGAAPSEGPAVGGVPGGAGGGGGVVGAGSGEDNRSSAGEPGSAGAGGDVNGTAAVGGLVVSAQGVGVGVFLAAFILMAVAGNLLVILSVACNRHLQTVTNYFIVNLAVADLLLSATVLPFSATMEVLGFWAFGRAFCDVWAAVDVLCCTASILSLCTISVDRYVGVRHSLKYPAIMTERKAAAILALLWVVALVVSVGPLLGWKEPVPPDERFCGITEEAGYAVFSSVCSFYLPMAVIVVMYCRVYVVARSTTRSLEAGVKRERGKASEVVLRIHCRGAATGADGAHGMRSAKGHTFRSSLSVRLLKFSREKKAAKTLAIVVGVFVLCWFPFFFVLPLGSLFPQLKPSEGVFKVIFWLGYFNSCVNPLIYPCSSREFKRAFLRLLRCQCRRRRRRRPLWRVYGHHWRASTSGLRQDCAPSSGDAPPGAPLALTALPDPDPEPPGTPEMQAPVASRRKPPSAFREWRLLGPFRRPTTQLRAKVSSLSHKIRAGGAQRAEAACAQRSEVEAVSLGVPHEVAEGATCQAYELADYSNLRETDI
It is filed as cell membranes, HEK293, Membrane.

Data set [2] in a line: DRUGMATRIX: ATPase, Na+/K+ enzyme inhibition (substrate: ATP). The data set is classed as tissue-based, Sus scrofa, Heart. As to conditions: Not Active = under 50% inhibition at 10 µM.
In data set [3] the target is T2, Cysteinyl leukotriene receptor 1 (Homo sapiens, UniProt Q9Y271). Further: in other assays of this panel Not Active means under 50% inhibition at 10 µM.
T2 sequence (Q9Y271 whole entry): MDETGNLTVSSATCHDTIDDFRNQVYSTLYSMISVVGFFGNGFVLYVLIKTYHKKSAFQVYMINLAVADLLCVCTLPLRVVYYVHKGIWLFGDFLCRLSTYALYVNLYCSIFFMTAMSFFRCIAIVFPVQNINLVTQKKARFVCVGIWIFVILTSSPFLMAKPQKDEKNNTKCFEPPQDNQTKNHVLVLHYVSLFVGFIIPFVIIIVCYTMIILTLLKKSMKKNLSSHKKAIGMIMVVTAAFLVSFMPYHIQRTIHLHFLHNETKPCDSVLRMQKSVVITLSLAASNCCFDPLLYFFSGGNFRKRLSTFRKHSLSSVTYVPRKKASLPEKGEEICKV
The data set is classed as cell membranes, CHO-K1, Membrane. To be noted: cho-k1.

Data set [4] addresses T3, Amine oxidase [flavin-containing] A (Homo sapiens, UniProt P21397).
T3 sequence (P21397 whole entry): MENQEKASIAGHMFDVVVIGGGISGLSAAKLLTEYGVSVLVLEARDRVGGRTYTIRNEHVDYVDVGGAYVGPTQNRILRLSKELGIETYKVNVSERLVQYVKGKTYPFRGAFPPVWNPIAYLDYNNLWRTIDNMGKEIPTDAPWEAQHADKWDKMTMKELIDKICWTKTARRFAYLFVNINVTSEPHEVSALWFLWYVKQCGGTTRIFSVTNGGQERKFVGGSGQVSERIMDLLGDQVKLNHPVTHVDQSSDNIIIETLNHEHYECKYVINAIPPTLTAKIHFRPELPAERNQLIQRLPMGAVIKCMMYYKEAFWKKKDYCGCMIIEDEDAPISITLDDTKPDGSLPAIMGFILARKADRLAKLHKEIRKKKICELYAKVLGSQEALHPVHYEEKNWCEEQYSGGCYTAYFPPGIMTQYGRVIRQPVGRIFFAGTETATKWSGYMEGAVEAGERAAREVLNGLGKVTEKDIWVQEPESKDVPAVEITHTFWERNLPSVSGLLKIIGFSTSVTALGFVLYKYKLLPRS
Description: DRUGMATRIX: Monoamine Oxidase MAO-A enzyme inhibition (substrate: Kynuramine). Further details: species or system BTI-TN-5B1-4. As to conditions: Not Active = under 50% inhibition at 10 µM.

The target of the next data set is T4, Neutrophil elastase (Homo sapiens, UniProt P08246).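 Further: inhibition of neutrophil elastase enzyme activity, measured with a p-nitroanilide-linked peptide substrate; in other assays of this panel Not Active means under 50% inhibition at 10 µM.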
T4 sequence (P08246 whole entry): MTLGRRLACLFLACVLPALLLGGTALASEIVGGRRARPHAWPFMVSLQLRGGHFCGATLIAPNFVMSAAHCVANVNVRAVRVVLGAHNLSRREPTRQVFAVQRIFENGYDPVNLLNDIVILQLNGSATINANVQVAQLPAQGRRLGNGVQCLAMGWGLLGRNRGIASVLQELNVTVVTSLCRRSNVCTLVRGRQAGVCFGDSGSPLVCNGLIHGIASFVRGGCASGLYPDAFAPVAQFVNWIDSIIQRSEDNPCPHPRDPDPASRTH
It is filed as tissue-based.

Data set [5] addresses Tyrosine-protein kinase Lck (Homo sapiens, UniProt P06239). The data set can be described thus: DRUGMATRIX: Protein Tyrosine Kinase, LCK enzyme inhibition (substrate: Poly(Glu:Tyr)). It is filed as cell-based, Insect cells. As to conditions: insect cells; Not Active = under 50% inhibition at 10 µM.
For the next data set, the target named is Cytochrome P450 2E1 (Homo sapiens, UniProt P05181). To be noted: bti-tn-5b1-4. Further: in other assays of this panel Not Active means under 50% inhibition at 10 µM.
Chain of Cytochrome P450 2E1 (P05181 whole entry): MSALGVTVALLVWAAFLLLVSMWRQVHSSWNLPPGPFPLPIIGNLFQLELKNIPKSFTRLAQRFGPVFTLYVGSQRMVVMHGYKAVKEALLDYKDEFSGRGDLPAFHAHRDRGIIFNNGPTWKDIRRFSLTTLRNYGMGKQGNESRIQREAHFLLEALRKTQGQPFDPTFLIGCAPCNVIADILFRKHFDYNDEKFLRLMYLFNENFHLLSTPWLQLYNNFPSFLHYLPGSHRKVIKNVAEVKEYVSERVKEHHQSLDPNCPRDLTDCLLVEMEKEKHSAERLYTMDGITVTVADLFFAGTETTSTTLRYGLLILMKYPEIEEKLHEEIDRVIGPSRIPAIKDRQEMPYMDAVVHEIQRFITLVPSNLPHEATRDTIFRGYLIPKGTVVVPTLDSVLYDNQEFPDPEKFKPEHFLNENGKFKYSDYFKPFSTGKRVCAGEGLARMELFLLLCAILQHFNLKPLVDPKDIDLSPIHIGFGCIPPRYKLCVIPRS

Chain of Tyrosine-protein kinase Lck (P06239 whole entry): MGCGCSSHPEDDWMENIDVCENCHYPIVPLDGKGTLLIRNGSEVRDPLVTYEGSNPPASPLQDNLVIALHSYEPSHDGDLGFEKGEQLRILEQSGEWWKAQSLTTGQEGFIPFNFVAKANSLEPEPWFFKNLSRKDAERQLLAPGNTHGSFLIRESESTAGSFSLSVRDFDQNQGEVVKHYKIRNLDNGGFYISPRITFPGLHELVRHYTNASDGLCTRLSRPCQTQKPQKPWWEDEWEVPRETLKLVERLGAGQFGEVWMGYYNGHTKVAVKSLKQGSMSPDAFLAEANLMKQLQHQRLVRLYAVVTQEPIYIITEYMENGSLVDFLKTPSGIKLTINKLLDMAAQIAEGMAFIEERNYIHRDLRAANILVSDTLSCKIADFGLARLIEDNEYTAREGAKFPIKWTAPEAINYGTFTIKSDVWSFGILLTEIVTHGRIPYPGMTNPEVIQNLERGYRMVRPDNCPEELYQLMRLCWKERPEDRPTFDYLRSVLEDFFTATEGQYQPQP

Consider `Oc1ccccc1` [PHENOL], for which the IC50 entry (in data set [1] (hek293); in data set [2]; in data set [3]; in data set [4] (bti-tn-5b1-4); against Neutrophil elastase; in data set [5]) was “Not Active” each time. Besides, the IC50 result against Cytochrome P450 2E1 was “Not Active”. Also, the Ki entry (in data set [2]; at Cytochrome P450 2E1) was “Not Active” each time.
As to `Nc1nc(F)nc2c1ncn2[C@@H]1O[C@H](CO)[C@@H](O)[C@@H]1O` [FLUDARABINE], the IC50 entry (in data set [1] (hek293); in data set [2]; in data set [3]; in data set [4] (bti-tn-5b1-4); against Neutrophil elastase; in data set [5]) was “Not Active” in each case. Moreover, on Cytochrome P450 2E1, the IC50 result is on record as “Not Active”. Besides, the Ki result (in data set [2]; at Cytochrome P450 2E1) was “Not Active” each time.
Take `c1ccc(Cn2ccnc2)cc1`: the IC50 entry (in data set [1] (hek293); in data set [2]; in data set [3]; in data set [4] (bti-tn-5b1-4); on Neutrophil elastase; in data set [5]) was “Not Active” each time. Also, the IC50 entry against Cytochrome P450 2E1 is on record as “Not Active”. Besides, the Ki entry (in data set [2]; on Cytochrome P450 2E1) was “Not Active” throughout.
In the case of `Nc1nc(N)c2nc(CNc3ccc(C(=O)N[C@@H](CCC(=O)O)C(=O)O)cc3)cnc2n1` [AMINOPTERIN], the IC50 entry (in data set [1] (hek293); in data set [2]; in data set [3]; in data set [4] (bti-tn-5b1-4); against Neutrophil elastase; in data set [5]) was “Not Active” in each case. For the same compound, the IC50 result at Cytochrome P450 2E1 is listed as “Not Active”. Also, the Ki result (in data set [2]; at Cytochrome P450 2E1) was “Not Active” in each case.
As to `C=C(Cl)Cl` [1,1-DICHLOROETHENE], the IC50 result (in data set [1] (hek293); in data set [2]; in data set [3]; in data set [4] (bti-tn-5b1-4); on Neutrophil elastase; in data set [5]) was “Not Active” in each case. In addition, on Cytochrome P450 2E1, the IC50 result is given as “Not Active”. The Ki result (in data set [2]; on Cytochrome P450 2E1) was “Not Active” each time.
With `Oc1ncnc2[nH]ncc12` [ALLOPURINOL], the IC50 result (in data set [1] (hek293); in data set [2]; in data set [3]; in data set [4] (bti-tn-5b1-4); against Neutrophil elastase; in data set [5]) was “Not Active” in each case. Moreover, the IC50 result against Cytochrome P450 2E1 is given as “Not Active”. In addition, the Ki result (in data set [2]; on Cytochrome P450 2E1) was “Not Active” each time.
For the compound `O=C(O)CCc1nc(-c2ccccc2)c(-c2ccccc2)o1` [OXAPROZIN], the IC50 result (in data set [1] (hek293); in data set [2]; in data set [3]; in data set [4] (bti-tn-5b1-4); against Neutrophil elastase; in data set [5]) was “Not Active” in each case. Also, the IC50 entry against Cytochrome P450 2E1 is given as “Not Active”. In addition, the Ki result (in data set [2]; at Cytochrome P450 2E1) was “Not Active” throughout.
As for `ClC1=C(Cl)[C@]2(Cl)[C@@H]3[C@@H]4C[C@@H]([C@H]5O[C@@H]45)[C@@H]3[C@@]1(Cl)C2(Cl)Cl` [DIELDRIN], the IC50 entry (in data set [1] (hek293); in data set [2]; in data set [3]; in data set [4] (bti-tn-5b1-4); against Neutrophil elastase; in data set [5]) was “Not Active” throughout. Moreover, the IC50 result against Cytochrome P450 2E1 is “Not Active”. Further, the Ki entry (in data set [2]; on Cytochrome P450 2E1) was “Not Active” in each case.
In the case of `CC1(COc2ccc(CC3SC(=O)NC3=O)cc2)CCCCC1` (stereo unspecified) [CIGLITAZONE], the IC50 entry (in data set [1] (hek293); in data set [2]; in data set [3]; against Neutrophil elastase; in data set [5]; against Cytochrome P450 2E1) was “Not Active” each time. For the same compound, the Ki entry (in data set [2]; on Cytochrome P450 2E1) was “Not Active” each time. In addition, the negative logarithm of the IC50 (pIC50) in data set [4] (read-out: IC50) is 4.53.
In the case of `OC[C@H]1O[C@@H]2O[C@H]3[C@H](O)[C@@H](O)[C@@H](O[C@H]4[C@H](O)[C@@H](O)[C@@H](O[C@H]5[C@H](O)[C@@H](O)[C@@H](O[C@H]6[C@H](O)[C@@H](O)[C@@H](O[C@H]7[C@H](O)[C@@H](O)[C@@H](O[C@H]8[C@H](O)[C@@H](O)[C@@H](O[C@H]1[C@H](O)[C@H]2O)O[C@@H]8CO)O[C@@H]7CO)O[C@@H]6CO)O[C@@H]5CO)O[C@@H]4CO)O[C@@H]3CO` [BETADEX], the IC50 result (in data set [1] (hek293); in data set [2]; in data set [3]; in data set [4] (bti-tn-5b1-4); against Neutrophil elastase; in data set [5]) was “Not Active” each time. Also, the IC50 result at Cytochrome P450 2E1 is given as “Not Active”. The Ki entry (in data set [2]; on Cytochrome P450 2E1) was “Not Active” throughout.
Turning to `COc1ccc(Cl)cc1C(=O)NCCc1ccc(S(=O)(=O)NC(=O)NC2CCCCC2)cc1` [GLYBURIDE], the IC50 entry (in data set [1] (hek293); in data set [2]; in data set [3]; in data set [4] (bti-tn-5b1-4); against Neutrophil elastase; in data set [5]) was “Not Active” each time. The IC50 result at Cytochrome P450 2E1 is “Not Active”. In addition, the Ki entry (in data set [2]; at Cytochrome P450 2E1) was “Not Active” in each case.
As for `COC(=O)Nc1nc2ccc(Sc3ccccc3)cc2[nH]1` [FENBENDAZOLE], the IC50 entry (in data set [1] (hek293); in data set [2]; in data set [3]; in data set [4] (bti-tn-5b1-4); on Neutrophil elastase; in data set [5]) was “Not Active” throughout. Moreover, the IC50 entry on Cytochrome P450 2E1 was “Not Active”. Also, the Ki entry (in data set [2]; on Cytochrome P450 2E1) was “Not Active” throughout.
Consider `CNC[C@H](O)c1ccc(O)c(O)c1` [EPINEPHRINE], for which, in data set [1] (read-out: IC50), the pIC50 is 6.35. Further, in data set [1] (read-out: Ki), the pKi is 6.66. Besides, the IC50 result (in data set [2]; in data set [3]; in data set [4] (bti-tn-5b1-4); against Neutrophil elastase; in data set [5]; on Cytochrome P450 2E1) was “Not Active” in each case. For the same compound, the Ki entry (in data set [2]; on Cytochrome P450 2E1) was “Not Active” in each case.
As to `C=CCO` [ALLYL ALCOHOL], the IC50 result (in data set [1] (hek293); in data set [2]; in data set [3]; in data set [4] (bti-tn-5b1-4); at Neutrophil elastase; in data set [5]) was “Not Active” each time. Moreover, the IC50 entry on Cytochrome P450 2E1 is recorded as “Not Active”. For the same compound, the Ki result (in data set [2]; on Cytochrome P450 2E1) was “Not Active” throughout.
As to CARBOXYMETHYLCELLULOSE, the IC50 entry (in data set [1] (hek293); in data set [2]; in data set [3]; in data set [4] (bti-tn-5b1-4); against Neutrophil elastase; in data set [5]) was “Not Active” throughout. The IC50 entry against Cytochrome P450 2E1 is recorded as “Not Active”. In addition, the Ki entry (in data set [1] (hek293); in data set [2]; in data set [3]; in data set [4] (bti-tn-5b1-4); on Neutrophil elastase; in data set [5]) was “Not Active” in each case. Also, the Ki entry on Cytochrome P450 2E1 is reported as “Not Active”.
